Assay results: patent US20240239792A1, “MODULATORS OF BCL-2 OR BCL-2/BCL-XL AND USES THEREOF” (APPICINE THERAPEUTICS (HK) LIMITED, priority 2021, published 2024)
pIC50: −log10 of the molar value.

Tests used:
BCL-2 = target: T1, BCL-2 (Homo sapiens, UniProt P10415); test: HTRF BCL-2/BAK assay (Cisbio); type: binding; conditions: recombinant human Tag1-BCL-2 2 nM, Tag2-BAK 10 nM
T1 construct: purchased Cisbio 63ADK000CB01PEG
Description: (§1) Then the pre-mixed anti-Tag1-Eu^3+ and anti-tag2-XL665 were added to the plate and further incubated at room temperature for another 2 hours. The signals ([…]) were read on Envision 2104 instrument. The IC50 for each compound was derived from fitting the signal of 665/615 nM to the increasing compound concentration.
(§2) Using the above assays, the following compounds were tested.

BCL-XL = target: T2, BCL-XL (Homo sapiens, UniProt Q07817); test: HTRF BCL-XL/BAK assay (Cisbio); type: binding; conditions: recombinant human Tag1-BCL-XL 2 nM, Tag2-BAK 5 nM
T2 construct: purchased Cisbio 63ADK000CB04PEG
Description: as §1, §2

DOHH2 cells = test: CellTiter-Glo cell proliferation assay, DOHH2 cells; type: cell-based; conditions: Homo sapiens, DOHH-2, 72 hours
Method in brief: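 DOHH2 cells seeded in DMEM + 10% FBS, exposed to serially diluted compound for 72 h at 37 °C, 5% CO2. Viability read by CellTiter-Glo luminescence; GI50 calculated.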

T2 sequence (Q07817 whole entry): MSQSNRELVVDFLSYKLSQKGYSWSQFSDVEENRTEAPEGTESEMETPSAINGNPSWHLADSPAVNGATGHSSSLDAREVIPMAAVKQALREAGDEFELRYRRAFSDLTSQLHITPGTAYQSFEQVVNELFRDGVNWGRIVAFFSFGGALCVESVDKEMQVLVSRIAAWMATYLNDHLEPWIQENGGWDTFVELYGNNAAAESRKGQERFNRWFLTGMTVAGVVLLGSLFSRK
T1 sequence (P10415 whole entry): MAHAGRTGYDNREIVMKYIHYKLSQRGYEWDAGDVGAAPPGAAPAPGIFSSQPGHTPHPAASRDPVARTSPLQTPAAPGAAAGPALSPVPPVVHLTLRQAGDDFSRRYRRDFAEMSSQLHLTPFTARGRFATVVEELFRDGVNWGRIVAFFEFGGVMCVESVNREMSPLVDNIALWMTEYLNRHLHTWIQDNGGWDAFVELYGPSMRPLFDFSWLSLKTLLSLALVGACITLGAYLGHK

Row | SMILES | pIC50 (BCL-2) | pIC50 (BCL-XL) | GI50 (DOHH2 cells)
1 | O=C(NS(=O)(=O)c1ccc(NCC2CCOCC2)c([N+](=O)[O-])c1)c1ccc(N2CCN(C3COCc4ccccc43)CC2)cc1Oc1cnc2[nH]ccc2c1 (stereo not drawn) [Compound 12, 2-((1H-pyrrolo[2,3-b]pyridin-5-yl)oxy)-4-(4-(isochroman-4-yl)piperazin-1-yl)-N-((3-nitro-4-(((tetrahydro-2H-pyran-4-yl)methyl)amino)phenyl)sulfonyl)benzamide] | 6.70 to 7.70 | < 5.70 | 500 to 5000 nM
2 | O=C(NS(=O)(=O)c1ccc(NCC2CCn3ccnc3C2)c([N+](=O)[O-])c1)c1ccc(N2CCN(C3CCCCc4c(Cl)cccc43)CC2)cc1Oc1cnc2[nH]ccc2c1 (stereo not drawn) [Compound 53, 2-((1H-pyrrolo[2,3-b]pyridin-5-yl)oxy)-4-(4-(1-chloro-6,7,8,9-tetrahydro-5H-benzo[7]annulen-5-yl)piperazin-1-yl)-N-((3-nitro-4-(((5,6,7,8-tetrahydroimidazo[1,2-a]pyridin-7-yl)methyl)amino)phenyl)sulfonyl)benzamide] | > 7.70 | > 7.70 | 50 to 500 nM
3 | CCOC(=O)CCN1CCC2(CC1)CC(CNc1ccc(S(=O)(=O)NC(=O)c3ccc(N4CCN([C@@H]5CCCCc6c(Cl)cccc65)CC4)cc3Oc3cnc4[nH]ccc4c3)cc1[N+](=O)[O-])C2 [Compound 130, ethyl (R)-3-(2-(((4-(N-(2-((1H-pyrrolo[2,3-b]pyridin-5-yl)oxy)-4-(4-(1-chloro-6,7,8,9-tetrahydro-5H-benzo[7]annulen-5-yl)piperazin-1-yl)benzoyl)sulfamoyl)-2-nitrophenyl)amino)methyl)-7-azaspiro[3.5]nonan-7-yl)propanoate] | > 7.70 | > 7.70 | < 50 nM
4 | CC(=O)N1CCC2(CC1)CC(CNc1ccc(S(=O)(=O)NC(=O)c3ccc(N4CCN([C@@H]5CCCCc6c(Cl)cccc65)CC4)cc3Oc3cnc4[nH]ccc4c3)cc1[N+](=O)[O-])C2 [Compound 111, (R)-2-((1H-pyrrolo[2,3-b]pyridin-5-yl)oxy)-N-((4-(((7-acetyl-7-azaspiro[3.5]nonan-2-yl)methyl)amino)-3-nitrophenyl)sulfonyl)-4-(4-(1-chloro-6,7,8,9-tetrahydro-5H-benzo[7]annulen-5-yl)piperazin-1-yl)benzamide] | > 7.70 | 6.70 to 7.70 | < 50 nM

Further lines, with some results ahead:

Row | pIC50 (BCL-2) | pIC50 (BCL-XL) | SMILES | GI50 (DOHH2 cells)
5 | > 7.70 | 5.70 to 6.70 | CC(CO)c1cccc2c1CCCCC2N1CCN(c2ccc(C(=O)NS(=O)(=O)c3ccc(NCC4CCOCC4)c([N+](=O)[O-])c3)c(Oc3cnc4[nH]ccc4c3)c2)CC1 (stereo not drawn) [Compound 61, 2-((1H-pyrrolo[2,3-b]pyridin-5-yl)oxy)-4-(4-(1-(1-hydroxypropan-2-yl)-6,7,8,9-tetrahydro-5H-benzo[7]annulen-5-yl)piperazin-1-yl)-N-((3-nitro-4-(((tetrahydro-2H-pyran-4-yl)methyl)amino)phenyl)sulfonyl)benzamide] | 500 to 5000 nM
6 | > 7.70 | 5.70 to 6.70 | O=C(NS(=O)(=O)c1ccc(NCC2CCOCC2)c([N+](=O)[O-])c1)c1ccc(N2CCN([C@@H]3CCCCc4c(Br)cc(F)cc43)CC2)cc1Oc1cnc2[nH]ccc2c1 [Compound 78, (R)-2-((1H-pyrrolo[2,3-b]pyridin-5-yl)oxy)-4-(4-(1-bromo-3-fluoro-6,7,8,9-tetrahydro-5H-benzo[7]annulen-5-yl)piperazin-1-yl)-N-((3-nitro-4-(((tetrahydro-2H-pyran-4-yl)methyl)amino)phenyl)sulfonyl)benzamide] | 50 to 500 nM
7 | > 7.70 | 6.70 to 7.70 | O=C(NS(=O)(=O)c1ccc(NCC2CC3(COC3)C2)c([N+](=O)[O-])c1)c1ccc(N2CCN(C3CCCCc4c(Cl)cccc43)CC2)cc1Oc1cnc2[nH]ccc2c1 (stereo not drawn) [Compound 46, 2-((1H-pyrrolo[2,3-b]pyridin-5-yl)oxy)-N-((4-(((2-oxaspiro[3.3]heptan-6-yl)methyl)amino)-3-nitrophenyl)sulfonyl)-4-(4-(1-chloro-6,7,8,9-tetrahydro-5H-benzo[7]annulen-5-yl)piperazin-1-yl)benzamide] | < 50 nM
